Assay results as given in patent US20240390256A1, “A DEODORANT COMPOSITION” (priority 2021, published 2024).

Test system: S. hominis ATCC 27844
Assay: Malodour assay using lead acetate method (H2S formation by S. hominis, 96-well plate)
Assay type: cell-based
Details: for (%) Malodour generated: bacterial control = 100; for % malodour generation as compared to pectin: malodour assay, carbohydrates at 2 wt. %
Procedure: The test organisms was grown on TSA (Tryptic Soya Agar) plates overnight (22±2 hr). The organism was not more than 3 passages removed from the original source. The cell number was adjusted by re-suspending it in a suitable amount of physiological saline sufficient to achieve the required cell number based on optical density of the cells. The optical density (OD at 620 nm) of the cells were standardized to the cell number for the test organism using a spectrophotometer. A minimum final suspension of 1.0×10^8 CFU/mL was achieved by adjusting the OD to 0.2 in saline for the malodour assay. A 1% lead acetate solution was made in distilled water. Whatmann filter paper (cut in the size that could be placed over the wells of a well plate) was dipped in the lead acetate solution. The excess solution was drained and allowed to dry in Laminar Air Flow for 30 minutes. Stock solutions of the actives were prepared for performing the assay. A 0.5% citrus pectin was prepared by weighing 0.05 g of pectin in 10 ml sterile distilled water under magnetic stirrer for 30 min. A 1:10 dilution of this stock was prepared in sterile distilled water to achieve a final stock of 0.05% citrus pectin to perform the assay. A 1% stock of niacinamide was prepared by weighing 0.1 g in 10 ml sterile distilled water. The malodour assay was adapted from the method of Moore et al, 2003 and modified into a 96 well plate format. 100 μl Tryptic Soy Broth (TSB) with 0.1% L-cysteine-HCl was added into the wells of the 96-well plate. 20 μl of 0.2 OD culture of S. hominis was then added into the wells. The actives were added from the stock solutions at required concentrations and made up the volume to 200 μl with addition of sterile distilled water. The assay was done in triplicates. The lead acetate paper was placed over the wells and the lid of the 96-well plate was closed and incubated at 37° C. incubator overnight. After the incubation time, the dark coloration of the lead acetate paper was observed. Visible blackening of lead acetate in the area over the well indicated the presence of H2S. The intensity of the colour was recorded using a reflectometer as L*a*b* values. The difference between the initial and final L*a*b* values ΔE, was used to quantify malodour formation. The percentage malodour was calculated from ΔE measured using the above assay for the various actives or combinations.

[1] = Table 2, comparative carbohydrates at 2 wt. %
[2] = Table 1, active wt % as given per example, S. hominis in TSB with 0.1% L-cysteine-HCl, 37° C. overnight, calculated from ΔE

OC[C@H]1O[C@@](CO)(O[C@H]2O[C@H](CO)[C@@H](O)[C@H](O)[C@H]2O)[C@@H](O)[C@@H]1O [F, Sucrose]
(%) Malodour generated [1]: 100%
% malodour generation as compared to pectin (Table 2): higher

NC(=O)c1cccnc1 [D, Niacinamide]
(%) Malodour generated [2]: 71%

NC(=O)c1cccnc1 [C, Niacinamide]
(%) Malodour generated [2]: 89%

O=C[C@H](O)[C@@H](O)[C@@H](O)[C@H](O)CO [J, Galactose]
(%) Malodour generated [1]: 90%
% malodour generation as compared to pectin (Table 2): higher
